Measured values from ChEMBL document CHEMBL1122103 (J Med Chem, 1982).

What was measured:
L1210 [1] = assay: In vitro for antitumor activity against L1210 leukemia in mice at a dose of 144 mg/Kg(sc) was reported as percentage increase in life span; type: functional; conditions: Mus musculus
L1210 [2] = assay: In vitro inhibition of L1210 cell growth in rodent neoplastic cells; type: functional, cell-based; conditions: Mus musculus
L1210 [3] = assay: In vitro for antitumor activity against L1210 leukemia in mice at a dose of 144 mg/Kg(sc) was reported as weight at termination of the therapy; type: functional, Mus musculus
Lacticaseibacillus casei [4] = assay: In vitro antibacterial activity against Lactobacillus casei (ATCC 7469); type: functional, organism-based
Dihydrofolate reductase [5] = target: Dihydrofolate reductase (Lactobacillus casei, UniProt P00381); assay: In vitro inhibition of Dihydrofolate reductase activity against Lactobacillus casei enzyme; type: functional, Lacticaseibacillus casei
Dihydrofolate reductase (Lactobacillus casei, UniProt P00381), sequence (P00381 whole entry): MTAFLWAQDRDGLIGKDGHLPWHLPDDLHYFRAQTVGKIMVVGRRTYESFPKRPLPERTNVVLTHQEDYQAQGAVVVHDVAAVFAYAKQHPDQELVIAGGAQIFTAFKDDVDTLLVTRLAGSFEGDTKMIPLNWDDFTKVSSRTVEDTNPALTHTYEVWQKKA

Thymidylate synthase = target: T1, Thymidylate synthase (Lactobacillus casei, UniProt P00469); assay: In vitro inhibition of activity against Lactobacillus casei enzyme thymidylate synthase; type: functional, Lacticaseibacillus casei
T1 sequence (P00469 whole entry): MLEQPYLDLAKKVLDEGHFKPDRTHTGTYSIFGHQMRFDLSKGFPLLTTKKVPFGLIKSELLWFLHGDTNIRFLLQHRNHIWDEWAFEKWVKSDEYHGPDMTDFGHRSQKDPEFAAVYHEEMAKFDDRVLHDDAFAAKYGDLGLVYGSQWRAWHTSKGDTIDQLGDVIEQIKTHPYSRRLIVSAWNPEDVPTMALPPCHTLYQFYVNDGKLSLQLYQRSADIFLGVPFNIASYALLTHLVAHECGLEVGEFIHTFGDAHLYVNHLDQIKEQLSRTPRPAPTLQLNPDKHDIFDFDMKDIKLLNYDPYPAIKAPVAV

Enterococcus faecium [6] = assay: In vitro antibacterial activity against Streptococcus faecium (ATCC 8043); type: functional, organism-based
L1210 [7] = assay: (§1) In vitro membrane transport activity in L1210 cells in rodent; type: functional, cell-based; conditions: Mus musculus
Lacticaseibacillus casei [8] = assay: In vitro antibacterial activity against MTX-resistance Lactobacillus casei; type: functional, organism-based
L1210 [9] = assay: as §1; type: functional, Mus musculus
Mus musculus [10] = species: Mus musculus; assay: In vitro membrane transport activity in S180 ascites tumor in rodent; type: functional
Mus musculus [11] = species: Mus musculus; assay: In vitro membrane transport activity in neoplastic epithelial cells of rodent gut; type: functional, cell-based; conditions: Epithelial cell
Ehrlich = assay: In vitro membrane transport activity in Ehrlich cells in rodent; type: functional, cell-based; conditions: Mus musculus
Enterococcus faecium [12] = assay: In vitro antibacterial activity against MTX-resistant Streptococcus faecium; type: functional, organism-based
L1210 [13] = assay: In vitro for antitumor activity against L1210 leukemia in mice at a dose of 144 mg/Kg(sc) was reported as maximum survival time; type: functional, Mus musculus
Dihydrofolate reductase [14] = target: T2, Dihydrofolate reductase (Mus musculus, UniProt P00375); assay: In vitro inhibitory activity against L1210 dihydrofolate reductase in rodent neoplastic cells
T2 sequence (P00375 whole entry): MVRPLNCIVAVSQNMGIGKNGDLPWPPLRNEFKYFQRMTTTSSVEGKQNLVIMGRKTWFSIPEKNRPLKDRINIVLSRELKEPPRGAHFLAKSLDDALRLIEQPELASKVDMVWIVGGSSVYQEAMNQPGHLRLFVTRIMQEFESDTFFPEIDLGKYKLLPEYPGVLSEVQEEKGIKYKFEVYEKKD

L1210 [15] = assay: In vitro for antitumor activity against L1210 leukemia in mice at a dose of 288 mg/Kg(sc) was reported as maximum survival time; type: functional, Mus musculus
[16] = In vitro for antitumor activity against S180 Ascites tumor in mice at a dose of 36 mg/Kg (sc) was reported as percentage increase in life span; type: functional; conditions: Mus musculus, S-180, sc
[17] = In vitro for antitumor activity against S180 Ascites tumor in mice at a dose of 288 mg/Kg (sc) was reported as weight at termination of the therapy; type: functional, Mus musculus
[18] = In vitro for antitumor activity against S180 Ascites tumor in mice at a dose of 288 mg/Kg (sc) was reported as percentage increase in life span; type: functional; conditions: Mus musculus, S-180, sc
[19] = In vitro for antitumor activity against S180 Ascites tumor in mice at a dose of 36 mg/Kg (sc) was reported as weight at termination of the therapy; type: functional, Mus musculus
L1210 [20] = assay: In vitro for antitumor activity against L1210 leukemia in mice at a dose of 288 mg/Kg(sc) was reported as weight at termination of the therapy; type: functional, Mus musculus
[21] = In vitro antitumor activity against S180 Ascites tumor in mice at a dose of 36 mg/Kg (sc) was reported as maximum survival time; type: functional, Mus musculus
L1210 [22] = assay: In vitro for antitumor activity against L1210 leukemia in mice at a dose of 288 mg/Kg(sc) was reported as percentage increase in life span; type: functional; conditions: Mus musculus
[23] = In vitro antitumor activity against S180 Ascites tumor in mice at a dose of 288 mg/Kg (sc) was reported as maximum survival time; type: functional, Mus musculus
[24] = In vitro for antitumor activity against S180 Ascites tumor in mice at a dose of 15 mg/Kg (sc) was reported as weight at termination of the therapy; type: functional, Mus musculus
L1210 [25] = assay: In vitro for antitumor activity against L1210 leukemia in mice at a dose of 15 mg/Kg(sc) was reported as percentage increase in life span; type: functional; conditions: Mus musculus
[26] = In vitro for antitumor activity against S180 Ascites tumor in mice at a dose of 15 mg/Kg (sc) was reported as percentage increase in life span; type: functional; conditions: Mus musculus, S-180, sc
L1210 [27] = assay: In vitro for antitumor activity against L1210 leukemia in mice at a dose of 15 mg/Kg(sc) was reported as weight at termination of the therapy; type: functional, Mus musculus
[28] = In vitro for antitumor activity against S180 Ascites tumor in mice at a dose of 6 mg/Kg (sc) was reported as percentage increase in life span; type: functional; conditions: Mus musculus, S-180, sc
[29] = In vitro antitumor activity against S180 Ascites tumor in mice at a dose of 15 mg/Kg (sc) was reported as maximum survival time; type: functional, Mus musculus
L1210 [30] = assay: In vitro for antitumor activity against L1210 leukemia in mice at a dose of 15 mg/Kg(sc) was reported as maximum survival time; type: functional, Mus musculus
[31] = In vitro for antitumor activity against S180 Ascites tumor in mice at a dose of 6 mg/Kg (sc) was reported as weight at termination of the therapy; type: functional, Mus musculus
[32] = In vitro antitumor activity against S180 Ascites tumor in mice at a dose of 6 mg/Kg (sc) was reported as maximum survival time; type: functional, Mus musculus
L1210 [33] = assay: In vitro for antitumor activity against L1210 leukemia in mice at a dose of 288 mg/kg (s.c.) was reported as percentage increase in life span; type: functional; conditions: Mus musculus, L1210, sc

Row | SMILES | IC50 (L1210 [2]) | IC50 (Lacticaseibacillus casei [4]) | IC50 (Dihydrofolate reductase [5]) | IC50 (Thymidylate synthase) | IC50 (Enterococcus faecium [6]) | Km (L1210 [7]) | IC50 (Lacticaseibacillus casei [8]) | k (L1210 [9]) | Km (Mus musculus [10]) | Km (Mus musculus [11]) | Km (Ehrlich) | IC50 (Enterococcus faecium [12]) | Ki (Dihydrofolate reductase [14]) | MST (L1210 [15]) | Weight at term (L1210 [20]) | further results
1 | CCCCCCCCN(Cc1cnc2nc(N)nc(N)c2n1)c1ccc(C(=O)NC(CCC(=O)O)C(=O)O)cc1 (stereo unspecified) | 0.217 µM | 0.017 µM | 0.012 µM | > 80 µM | 0.41 µM | 5.6 µM | > 10000 µM | 0.89 min⁻¹ | 1.8 µM | 1290 µM | 1.3 µM | 670 µM | 17500 pM |  |  | ILS at 144 mg/kg (L1210 [1]): 16%; Weight at term (L1210 [3]): 22.7 g; MST (L1210 [13]): 8.1 days
2 | C#CCN(Cc1cnc2nc(N)nc(N)c2n1)c1ccc(C(=O)NC(CCC(=O)O)C(=O)O)cc1 (stereo unspecified) | 0.0014 µM | 0.014 µM | 0.01 µM | 20 µM | 0.21 µM | 3.2 µM | > 10000 µM | 0.26 min⁻¹ | 2.1 µM | 385 µM | 2.4 µM | > 10000 µM | 500 pM | 16.6 days | 22.3 g | ILS at 36 mg/kg [16]: 129%; Weight at term [17]: 22.4 g; ILS at 288 mg/kg [18]: 67%; Weight at term [19]: 23.9 g; MST [21]: 22.9 days; ILS at 288 mg/kg (L1210 [22]): 143%; MST [23]: 19.8 days
3 | CN(Cc1cnc2nc(N)nc(N)c2n1)c1ccc(C(=O)N[C@@H](CCC(=O)O)C(=O)O)cc1 [METHOTREXATE] |  | 0.013 µM |  |  | 0.09 µM | 3.7 µM | > 10000 µM | 0.23 min⁻¹ | 11.4 µM | 339 µM | 10.1 µM | 7200 µM |  |  |  | Weight at term [24]: 24.4 g; ILS at 15 mg/kg (L1210 [25]): 152%; ILS at 15 mg/kg [26]: 82%; Weight at term (L1210 [27]): 19.8 g; ILS at 6 mg/kg [28]: 78%; MST [29]: 21.4 days; MST (L1210 [30]): 17.1 days; Weight at term [31]: 24.1 g; MST [32]: 17.8 days
4 | Nc1nc(N)c2nc(CNc3ccc(C(=O)N[C@@H](CCC(=O)O)C(=O)O)cc3)cnc2n1 [AMINOPTERIN] | 0.0012 µM |  |  |  |  | 1.3 µM |  | 0.21 min⁻¹ |  |  | 2.1 µM |  | 4 pM |  |  | 
5 | CCCN(Cc1cnc2nc(N)nc(N)c2n1)c1ccc(C(=O)NC(CCC(=O)O)C(=O)O)cc1 (stereo unspecified) | 0.0022 µM |  |  |  |  | 3.2 µM |  | 0.26 min⁻¹ | 3.5 µM | 422 µM | 4.2 µM |  | 3 pM | 15.8 days | 21.3 g | ILS at 288 mg/kg (L1210 [33]): 133%
